# Measured values taken from patent US20170190671A1, “BIS(ARYL)CATECHOL DERIVATIVES AS HERBICIDES” (E I DU PONT DE NEMOURS AND COMPANY, priority 2014, published 2017).
# Tests used:
# Type in all cases: in vivo
# [1] = test system: Italian ryegrass (Lolium multiflorum); assay: Test C preemergence; conditions: Lolium multiflorum, pre-emergence, 336 h, preemergence, scale 0 to 100, read-out: Plant response rating, Ryegrass, Italian
# Summary of the method: (§1)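 Seeds sown in a loam soil and sand blend were treated preemergence; plants in peat-moss/vermiculite medium were sprayed at the 1- to 4-leaf stage (2-18 cm). Chemicals were in a non-phytotoxic surfactant-containing solvent. After 13 to 15 days in a greenhouse, injury was visually rated against controls on a 0-100 scale.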
# [2] = test system: blackgrass (Alopecurus myosuroides); assay: Test C preemergence; conditions: Alopecurus myosuroides, pre-emergence, 336 h, preemergence, scale 0 to 100, read-out: Plant response rating, Blackgrass
# Summary of the method: as §1
# corn (Zea mays) = assay: Test C preemergence; conditions: Zea mays, pre-emergence, 336 h, preemergence, scale 0 to 100
# Summary of the method: as §1
# [3] = test system: galium (catchweed bedstraw, Galium aparine); assay: Test C preemergence; conditions: Galium, pre-emergence, 336 h, preemergence, scale 0 to 100, read-out: Plant response rating, Galium
# Summary of the method: as §1
# [4] = test system: giant foxtail (Setaria faberii); assay: Test C preemergence; conditions: Setaria faberi, pre-emergence, 336 h, preemergence, scale 0 to 100, read-out: Plant response rating, Foxtail, Giant
# Summary of the method: as §1
# [5] = test system: johnsongrass (Sorghum halepense); assay: Test C preemergence; conditions: Sorghum halepense, pre-emergence, 336 h, preemergence, scale 0 to 100, read-out: Plant response rating, Johnsongrass
# Summary of the method: as §1
# [6] = test system: large (Lg) crabgrass (Digitaria sanguinalis); assay: Test C preemergence; conditions: Digitaria sanguinalis, pre-emergence, 336 h, preemergence, scale 0 to 100, read-out: Plant response rating, Crabgrass, Large
# Summary of the method: as §1
# [7] = test system: morningglory (Ipomoea coccinea); assay: Test C preemergence; conditions: Ipomoea, pre-emergence, 336 h, preemergence, scale 0 to 100, read-out: Plant response rating, Morningglory
# Summary of the method: as §1
# [8] = test system: oilseed rape (Brassica napus); assay: Test C preemergence; conditions: Brassica napus, pre-emergence, preemergence, scale 0 to 100, read-out: Plant response rating, Oilseed Rape
# Summary of the method: as §1
# [9] = test system: pigweed (Amaranthus retroflexus); assay: Test C preemergence; conditions: Amaranthus retroflexus, pre-emergence, 336 h, preemergence, scale 0 to 100, read-out: Plant response rating, Pigweed
# Summary of the method: as §1
# [10] = test system: ragweed (common ragweed, Ambrosia elatior); assay: Test C preemergence; conditions: Ambrosia artemisiifolia, pre-emergence, 336 h, preemergence, scale 0 to 100, read-out: Plant response rating, Ragweed
# Summary of the method: as §1
# soybean (Glycine max) = assay: Test C preemergence; conditions: Glycine max, pre-emergence, preemergence, scale 0 to 100, read-out: Plant response rating, Soybean
# Summary of the method: as §1
# [11] = test system: velvetleaf (Abutilon theophrasti); assay: Test C preemergence; conditions: Abutilon theophrasti, pre-emergence, preemergence, scale 0 to 100, read-out: Plant response rating, Velvetleaf
# Summary of the method: as §1
# [12] = test system: waterhemp (common waterhemp, Amaranthus rudis); assay: Test C preemergence; conditions: Amaranthus tuberculatus, pre-emergence, preemergence, scale 0 to 100, read-out: Plant response rating, Waterhemp
# Summary of the method: as §1
# [13] = test system: winter wheat (Triticum aestivum); assay: Test C preemergence; conditions: Triticum aestivum, pre-emergence, 336 h, preemergence, scale 0 to 100, read-out: Plant response rating, Wheat
# Summary of the method: as §1
# [14] = test system: yellow nutsedge (Cyperus esculentus); assay: Test C preemergence; conditions: Cyperus, pre-emergence, 336 h, preemergence, scale 0 to 100, read-out: Plant response rating, Nutsedge, Yellow
# Summary of the method: as §1
# [15] = test system: blackgrass (Alopecurus myosuroides); assay: Test C postemergence; conditions: Alopecurus myosuroides, post-emergence, 336 h, Postemergence, scale 0 to 100, read-out: Plant response rating, Blackgrass
# Description: (§2) Seeds of plant species selected from blackgrass (Alopecurus myosuroides), Italian ryegrass (Lolium multiflorum), winter wheat (Triticum aestivum), galium (catchweed bedstraw, Galium aparine), corn (Zea mays), large (Lg) crabgrass (Digitaria sanguinalis), giant foxtail (Setaria faberii), johnsongrass (Sorghum halepense), lambsquarters (Chenopodium album), morningglory (Ipomoea coccinea), yellow nutsedge (Cyperus esculentus), pigweed (Amaranthus retroflexus), ragweed (common ragweed, Ambrosia elatior), soybean (Glycine max), barnyardgrass (Echinochloa crus-galli), oilseed rape (Brassica napus), waterhemp (common waterhemp, Amaranthus rudis), and velvetleaf (Abutilon theophrasti) were planted into a blend of loam soil and sand and treated preemergence with test chemicals formulated in a non-phytotoxic solvent mixture which included a surfactant.
# (§3) At the same time, plants selected from these crop and weed species and also chickweed (common chickweed, Stellaria media), kochia (Kochia scoparia), and wild oat (Avena fatua), were planted in pots containing Redi-Earth® planting medium (Scotts Company, 14111 Scottslawn Road, Marysville, Ohio 43041) comprising spaghnum peat moss, vermiculite, wetting agent and starter nutrients and treated with postemergence applications of test chemicals formulated in the same manner. Plants ranged in height from 2 to 18 cm (1- to 4-leaf stage) for postemergence treatments. Treated plants and controls were maintained in a greenhouse for 13 to 15 days, after which time all species were compared to controls and visually evaluated. Plant response ratings, summarized in Table C, are based on a scale of 0 to 100 where 0 is no effect and 100 is complete control. A dash (-) response means no test result.
# [16] = test system: chickweed (common chickweed, Stellaria media); assay: Test C postemergence; conditions: Stellaria media, post-emergence, Postemergence, scale 0 to 100, read-out: Plant response rating, Chickweed
# Description: as §2, §3
# [17] = test system: giant foxtail (Setaria faberii); assay: Test C postemergence; conditions: Setaria faberi, post-emergence, 336 h, Postemergence, scale 0 to 100, read-out: Plant response rating, Foxtail, Giant
# Description: as §2, §3
# [18] = test system: lambsquarters (Chenopodium album); assay: Test C postemergence; conditions: Chenopodium album, post-emergence, 336 h, Postemergence, scale 0 to 100, read-out: Plant response rating, Lambsquarters
# Description: as §2, §3
# [19] = test system: velvetleaf (Abutilon theophrasti); assay: Test C postemergence; conditions: Abutilon theophrasti, post-emergence, Postemergence, scale 0 to 100, read-out: Plant response rating, Velvetleaf
# Description: as §2, §3
# [20] = test system: yellow nutsedge (Cyperus esculentus); assay: Test C postemergence; conditions: Cyperus, post-emergence, 336 h, Postemergence, scale 0 to 100, read-out: Plant response rating, Nutsedge, Yellow
# Description: as §2, §3
compound,measurement,setting,value
"N#Cc1cccc(Oc2ncc(Cl)cn2)c1Oc1ncc(Cl)cn1 [Compound 3, 2,3-bis[(5-chloro-2-pyrimidinyl)oxy]benzonitrile]",pest or weed control at 31 g/ha,[1]; 31 g ai/ha,5%
same,pest or weed control at 62 g/ha,[1]; 62 g ai/ha,35%
same,pest or weed control at 125 g/ha,[1]; 125 g ai/ha,90%
same,pest or weed control at 250 g/ha,[1]; 250 g ai/ha,90%
same,pest or weed control at 31 g/ha,[2]; 31 g ai/ha,70%
same,pest or weed control at 62 g/ha,[2]; 62 g ai/ha,90%
same,pest or weed control at 125 g/ha,[2]; 125 g ai/ha,90%
same,"Corn plant response rating (crop injury, 0 = no effect, 100 = complete kill) at 31 g/ha",corn (Zea mays); 31 g ai/ha,20%
same,"Corn plant response rating (crop injury, 0 = no effect, 100 = complete kill) at 62 g/ha",corn (Zea mays); 62 g ai/ha,70%
same,"Corn plant response rating (crop injury, 0 = no effect, 100 = complete kill) at 125 g/ha",corn (Zea mays); 125 g ai/ha,85%
same,pest or weed control at 31 g/ha,[3]; 31 g ai/ha,90%
same,pest or weed control at 62 g/ha,[3]; 62 g ai/ha,90%
same,pest or weed control at 125 g/ha,[3]; 125 g ai/ha,90%
same,pest or weed control at 31 g/ha,[4]; 31 g ai/ha,100%
same,pest or weed control at 62 g/ha,[4]; 62 g ai/ha,100%
same,pest or weed control at 125 g/ha,[4]; 125 g ai/ha,100%
same,pest or weed control at 31 g/ha,[5]; 31 g ai/ha,45%
same,pest or weed control at 62 g/ha,[5]; 62 g ai/ha,75%
same,pest or weed control at 125 g/ha,[5]; 125 g ai/ha,100%
same,pest or weed control at 31 g/ha,[6]; 31 g ai/ha,100%
same,pest or weed control at 62 g/ha,[6]; 62 g ai/ha,100%
same,pest or weed control at 125 g/ha,[6]; 125 g ai/ha,100%
same,pest or weed control at 31 g/ha,[7]; 31 g ai/ha,45%
same,pest or weed control at 62 g/ha,[7]; 62 g ai/ha,98%
same,pest or weed control at 125 g/ha,[7]; 125 g ai/ha,100%
same,plant injury at 31 g/ha,[8]; 31 g ai/ha,90%
same,plant injury at 62 g/ha,[8]; 62 g ai/ha,95%
same,plant injury at 125 g/ha,[8]; 125 g ai/ha,95%
same,plant injury at 250 g/ha,[8]; 250 g ai/ha,95%
same,pest or weed control at 31 g/ha,[9]; 31 g ai/ha,100%
same,pest or weed control at 62 g/ha,[9]; 62 g ai/ha,100%
same,pest or weed control at 125 g/ha,[9]; 125 g ai/ha,100%
same,pest or weed control at 31 g/ha,[10]; 31 g ai/ha,90%
same,pest or weed control at 125 g/ha,[10]; 125 g ai/ha,90%
same,pest or weed control at 250 g/ha,[10]; 250 g ai/ha,100%
same,plant injury at 31 g/ha,soybean (Glycine max); 31 g ai/ha,40%
same,plant injury at 62 g/ha,soybean (Glycine max); 62 g ai/ha,40%
same,plant injury at 125 g/ha,soybean (Glycine max); 125 g ai/ha,85%
same,plant injury at 250 g/ha,soybean (Glycine max); 250 g ai/ha,95%
same,pest or weed control at 31 g/ha,[11]; 31 g ai/ha,80%
same,pest or weed control at 62 g/ha,[11]; 62 g ai/ha,100%
same,pest or weed control at 125 g/ha,[11]; 125 g ai/ha,100%
same,pest or weed control at 250 g/ha,[11]; 250 g ai/ha,100%
same,pest or weed control at 31 g/ha,[12]; 31 g ai/ha,100%
same,pest or weed control at 62 g/ha,[12]; 62 g ai/ha,100%
same,pest or weed control at 125 g/ha,[12]; 125 g ai/ha,100%
same,pest or weed control at 250 g/ha,[12]; 250 g ai/ha,100%
same,plant injury at 31 g/ha,[13]; 31 g ai/ha,5%
same,plant injury at 62 g/ha,[13]; 62 g ai/ha,45%
same,plant injury at 125 g/ha,[13]; 125 g ai/ha,90%
same,plant injury at 250 g/ha,[13]; 250 g ai/ha,90%
same,pest or weed control at 31 g/ha,[14]; 31 g ai/ha,5%
same,pest or weed control at 62 g/ha,[14]; 62 g ai/ha,15%
same,pest or weed control at 125 g/ha,[14]; 125 g ai/ha,55%
same,pest or weed control at 31 g/ha,[15]; 31 g ai/ha,20%
same,pest or weed control at 62 g/ha,[15]; 62 g ai/ha,20%
same,pest or weed control at 125 g/ha,[15]; 125 g ai/ha,30%
same,pest or weed control at 250 g/ha,[15]; 250 g ai/ha,30%
same,pest or weed control at 31 g/ha,[16]; 31 g ai/ha,50%
same,pest or weed control at 62 g/ha,[16]; 62 g ai/ha,85%
same,pest or weed control at 125 g/ha,[16]; 125 g ai/ha,90%
same,pest or weed control at 250 g/ha,[16]; 250 g ai/ha,95%
same,pest or weed control at 31 g/ha,[17]; 31 g ai/ha,5%
same,pest or weed control at 62 g/ha,[17]; 62 g ai/ha,15%
same,pest or weed control at 125 g/ha,[17]; 125 g ai/ha,15%
same,pest or weed control at 250 g/ha,[17]; 250 g ai/ha,60%
same,pest or weed control at 31 g/ha,[18]; 31 g ai/ha,85%
same,pest or weed control at 62 g/ha,[18]; 62 g ai/ha,95%
same,pest or weed control at 125 g/ha,[18]; 125 g ai/ha,95%
same,pest or weed control at 250 g/ha,[18]; 250 g ai/ha,100%
same,pest or weed control at 31 g/ha,[19]; 31 g ai/ha,35%
same,pest or weed control at 62 g/ha,[19]; 62 g ai/ha,70%
same,pest or weed control at 125 g/ha,[19]; 125 g ai/ha,70%
same,pest or weed control at 250 g/ha,[19]; 250 g ai/ha,80%
same,pest or weed control at 31 g/ha,[20]; 31 g ai/ha,0%
same,pest or weed control at 62 g/ha,[20]; 62 g ai/ha,0%
same,pest or weed control at 125 g/ha,[20]; 125 g ai/ha,5%
same,pest or weed control at 250 g/ha,[20]; 250 g ai/ha,35%
